Data as given in patent US20050058614A1, “Methods for the treatment of gray hair using cyclopentane(ene) heptan(en)oic acid amides” (Allergan, Inc., priority 2003, published 2005).

What was measured:
[1] = untoward effects during the observation period; type: in vivo, human; settings: healthy person, oral, same dose as Example 1
Text: (§1) A healthy subject with normal blood pressure volunteers to take the medicine for observation on hair growth promoting activity at the same dose reported in Example 1. Before taking the medicine they have few hairs left in the frontoparietal area of the head. Three months after taking the medicine, they begin to note an increase of hair density in the affected area. […] The response to the medicine is more sensitive in areas with most recent hair loss. […] The observation is terminated at the end of six months.
A healthy person with normal blood pressure volunteers to take the medicine for the same observation as in Example 2 at the dose described above. Their hair condition is normal with no baldness. During the six month testing period, they collect in intervals the hair samples from regular daily combing. Before the testing and during the first month of testing, the hair samples collected have two types, namely completely dark brown or completely gray. At around 50 days into the testing period, a new type of hair, partly dark brown and partly gray, begins to appear in the hair samples; they represent about 3% of the gray hairs. In this subject, the gray hairs represent about 25% of their total hairs in the samples collected. It is noted that the dark brown part of the new type of hair is always associated with the lower part of the hair shaft. […]

gray hair = test: conversion of gray hair to original pigment on oral bimatoprost in human subjects; type: in vivo
Text: A patient began taking bimatoprost as a tablet. […] A healthy person with normal blood pressure volunteers to take the medicine for the same observation as in Example 2 at the dose described above. Their hair condition is normal with no baldness. During the six month testing period, they collect in intervals the hair samples from regular daily combing. Before the testing and during the first month of testing, the hair samples collected have two types, namely completely dark brown or completely gray. At around 50 days into the testing period, a new type of hair, partly dark brown and partly gray, begins to appear in the hair samples; they represent about 3% of the gray hairs. In this subject, the gray hairs represent about 25% of their total hairs in the samples collected. It is noted that the dark brown part of the new type of hair is always associated with the lower part of the hair shaft. This is easily identifiable because the hair follicles are distinguishable at one end of hair shafts. The quality and thickness of the new type of hair is very similar to the other types of hairs of this subject. The ratio of length of the dark brown part to that of the gray part of the new type of hair varies from 1:5 to 4:1 in the samples collected during the five-month period. This varying ratio may reflect the stages of the growth cycle of each hair follicle examined. The observation was discontinued at the end of five months.

eyelashes = settings: Lumigan ophthalmic solution applied in the FDA approved manner; cited from earlier work
[2] = system: hair in the frontoparietal area of the head; test: observation on hair growth promoting activity on oral bimatoprost; type: in vivo, human; settings: healthy person
Text: as §1

untoward effects ([1]; observation discontinued at five months): No untoward effects were reported | untoward effects ([1]; six months observation): does not experience any untoward effects
SMILES: CCNC(=O)CCC/C=C\C[C@@H]1[C@@H](/C=C/[C@@H](O)CCc2ccccc2)[C@H](O)C[C@@H]1O [bimatoprost, cyclopentane N-ethyl heptanamide-5-cis-2-(3α-hydroxy-5-phenyl-1-trans-pentenyl)-3,5-dihydroxy, [1α,2β,3α,5α]]
time until new type of hair, partly dark brown and partly gray, appears in hair samples (gray hair; healthy person, no baldness, oral, same dose as Example 1, hair samples from daily combing): around 50 days | new type of hair (partly dark brown, partly gray) as share of the gray hairs (gray hair; healthy person, oral, same dose as Example 1, gray hairs about 25% of total hairs): about 3% | gray hairs turned into the original pigment (gray hair; patient, oral tablet 2 x 100 mg per dose, 3 doses per day, four months): a significant portion of their gray hairs had gradually turned into the original pigment or dark brown color | growth of eyelashes (eyelashes): effective to increase the growth of eyelashes | time until increase of hair density in the affected area is noted ([2]; few hairs in frontoparietal area, same dose as Example 1): Three | colour of the newly grown hairs in the affected area ([2]; same dose as Example 1): mostly dark brown | overall increase of the hair density in the affected area ([2]; same dose as Example 1, six months): very significant | hair cut frequency ([2]; same dose as Example 1, three to six months of the testing period): increase the hair cut frequency to once a month from once every two months
